Reference: patent publication US6921811B2, “Bioactive coating composition and methods” (BioSurface Engineering Technologies, Inc., priority 1998, dated 2005)

How the values were obtained:
[1] = system: C3H10T1/2 (murine fibroblasts); test: Cell attachment, spreading and growth on coated low-attachment polystyrene wells; format: cell-based; conditions: C3H10T1/2; coated low-attachment polystyrene wells; 10^4 cells/well; serum-containing medium
From the text: (§1) Several cell types were used, including GS-9L cells (rat gliosarcoma), C3H10T1/2 (murine fibroblasts), Jurkat (human T cell), bovine aorta endothelial (BAE) cells and rat lymphocytes. GS-9L and C3H10T1/2 cells were maintained in log phase growth and detached from cultureware using Versene and collected by centrifugation. Jurkat cells grew as single cell suspensions and were collected by centrifugation. Rat lymphocytes were collected from heparinized blood by density gradient isolation over Ficoll-Hypaque® media. The collected cells were rinsed once by low speed centrifugation and suspended in either serum-free Dulbecco's Modified Eagles Medium (DMEM) containing pyruvate or RPMI 1640 containing 10% fetal bovine serum (FBS) supplemented with pyruvate. Aliquots of 10^4 cells in 100 μL were used in subsequent adhesion studies.
The cells were examined after plating using an inverted, phase-contrast microscope. At selected time points up to 4 days after initial seeding, the cells were rinsed three times in saline and fixed in buffered 10% formalin or 35% ethanol. In some cases, the cells were stained in situ with a 0.01 % aqueous solution of crystal violet. The amount of attachment was scored visually or quantitated. To establish the relative number of cells bound, crystal violet stained cells were dissolved in a solution of 70% ethanol containing 0.1% sodium dodecyl sulfate and 0.38 M Tris and the absorbance monitored at 610 nm, using the methods of Scragg and Ferreira (Anal Biochem 198:80-5, 1991) and Grando et al. (Skin Pharmacol 6:135-47, 1993).
The cells of Example 7 were added to untreated polystyrene wells, wells coated with silyl-heparin as in Example 4, with silyl-heparin-fibronectin as in Example 5, and with only fibronectin by incubation as described in Example 5. […] Cells were seeded at a concentration of 10^4 cells/well in serum-containing medium.
The cells grew to confluency by 4 days. […] No effort was made to grow the cells in a defined- or serum-low medium known to support growth. […]

bFGF = target: T1, bFGF (Homo sapiens, UniProt P09038); test: bFGF binding to silyl-heparin coated polystyrene wells, immunoassay
T1 construct: purchased Sigma Chemical Co
Procedure: Wells of 96 well polystyrene microtiter plates, with a well surface area of 0.32 cm^2, were coated with 30 μl of silyl heparin for 15 minutes at 37° C. After rinsing and air-drying, bFGF (Sigma Chemical Co.) in PBS/BSA was added in 150 μL aliquots in doubling dilutions. The plate was incubated at 37° C. for 1 hour and rinsed 5 times in PBS. An aliquot 150 μl of PBS/BSA containing 1:500 rabbit anti-FGF antibodies were added, incubated for 1 hour and rinsed. In some cases an irrelevant rabbit antibody was used at a similar concentration (rabbit anti-TGF-receptor II, Santa Cruz Biotechnology). An aliquot of PBS/BSA containing 1:500 HRPO-conjugated donkey anti-rabbit IgG added, and after incubation and rinsing ABTS-chromogen added. All antibody solutions were filtered through 0.2 micron filters prior to use. The absorbance was monitored at 405 nm. […] When anti-TGF-II (irrelevant antibody directed against the transforming growth factor receptor) was used instead of anti-FGF and at the same anti-dilutions, no bFGF was detected. When TGF-β, at a concentration of 40 ng was used as the growth factor molecule, no activity was detected with anti-bFGF antibodies.

Jurkat (human T cell) = test: Cell attachment on coated low-attachment polystyrene wells; format: cell-based; conditions: 10^4 cells/well, serum-containing medium
From the text: as §1
(§2) The cells were examined after plating using an inverted, phase-contrast microscope. […] The amount of attachment was scored visually or quantitated. To establish the relative number of cells bound, crystal violet stained cells were dissolved in a solution of 70% ethanol containing 0.1% sodium dodecyl sulfate and 0.38 M Tris and the absorbance monitored at 610 nm, using the methods of Scragg and Ferreira (Anal Biochem 198:80-5, 1991) and Grando et al. (Skin Pharmacol 6:135-47, 1993). […]

rat lymphocytes = test: as above; format: cell-based; conditions: 10^4 cells/well, serum-containing medium
From the text: as §1, §2

[2] = system: Bovine aorta endothelial cells; test: Growth of endothelial cells across a porous membrane from coated sutures, crystal violet; format: cell-based; conditions: coated suture separated from cells by 3 micron pore membrane; 4 days
Procedure: Six-well cluster plates were seeded with 5×10^4 bovine aorta endothelial cells. Cell culture insert membranes (25 mm diameter) with 3 micron pores in the bottom were placed in each well. Suture material was coated with silyl-heparin-bFGF or silyl-heparin. 10 cm of suture material, either coated or uncoated, was placed in each well and medium added sufficient to cover the suture (3 mL total). One set of inserts containing an uncoated suture was spiked with 50 ng of bFGF by adding the bFGF directly to the medium and was used as a positive control. The cells were allowed to grow for 4 days, and were then fixed and stained with crystal violet. Thereafter, the stain was eluted in aqueous methanol and 0.4% SDS and monitored at 595 nm. bFGF from the silyl-heparin-bFGF coated suture was able to transit the separating permeable 3 micron membrane and act regionally to stimulate the growth of endothelial cells at the end of 4 days, as shown in FIG. 6.

antithrombin/factor Xa = target: T2, antithrombin/factor Xa (Homo sapiens, UniProt P01008); test: Loading efficiency of silyl-heparin complexes on materials, heparin-specific assays; format: biochemical; conditions: varied by substrate material (polystyrene, polycarbonate, polyurethane, stainless steel, titanium and others)
T2 construct: purchased Sigma Diagnostics Procedure No. CRS 106
From the text: Using contacting surfaces coated with silyl-heparin as in Example 4, and to which silyl-heparin-fibronectin was attached as in Example 5, the presence of both heparin and fibronectin was detected in analytical assays. Heparin was detected using a commercially-available an enzyme-linked assay kit (Sigma Chemical Co., St. Louis) that measured the heparin-induced inhibition of antithrombin/factor Xa as measured with a factor Xa specific chromogenic substrate. The enzyme-inhibition assay was performed in low-attachment 96 well plates following the directions of the manufacturer.
In related studies, heparin-specific assays and diemethylene blue dye uptake were used to establish that silyl-heparin complexes could be bound to a variety of materials including polystyrene, hydrogel-coated polystyrene, polycarbonate, polyurethane, poly caprolactone, polyvinylchloride, stainless steel and titanium. The loading efficiency of silyl-heparin complexes varied by substrate material, but was generally in the range of 10-40 mlU of heparin per cm^2.

T1 sequence (P09038 143-288, species assumed): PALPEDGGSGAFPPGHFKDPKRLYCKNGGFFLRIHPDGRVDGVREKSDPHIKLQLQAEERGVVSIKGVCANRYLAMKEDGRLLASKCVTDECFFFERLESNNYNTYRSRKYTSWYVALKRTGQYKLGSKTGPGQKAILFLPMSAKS
T2 sequence (P01008 33-464): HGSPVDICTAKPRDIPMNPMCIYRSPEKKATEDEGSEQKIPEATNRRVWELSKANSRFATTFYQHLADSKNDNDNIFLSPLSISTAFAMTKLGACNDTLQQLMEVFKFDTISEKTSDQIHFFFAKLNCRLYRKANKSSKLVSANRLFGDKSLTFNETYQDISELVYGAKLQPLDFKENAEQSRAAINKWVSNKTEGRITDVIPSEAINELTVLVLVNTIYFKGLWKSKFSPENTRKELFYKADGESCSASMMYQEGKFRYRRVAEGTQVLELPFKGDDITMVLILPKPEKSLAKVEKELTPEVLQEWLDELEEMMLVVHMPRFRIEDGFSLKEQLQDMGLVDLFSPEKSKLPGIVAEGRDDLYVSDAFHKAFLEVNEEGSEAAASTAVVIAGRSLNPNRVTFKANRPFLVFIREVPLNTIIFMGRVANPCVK

- upper saturation limit of the silyl-heparin complex for bFGF (bFGF; color development linear at high concentrations): had not been reached
- binding of bFGF to silyl-heparin complexes on a contacting surface (bFGF; immunoassays): readily bound
- binding of both fibrinogen and bFGF to heparin on a silyl-heparin complex (bFGF; immunoassays): without displacement of either
- loading efficiency of silyl-heparin complexes (antithrombin/factor Xa): 10-40 mlU of heparin per cm^2
Substance: benzyl-(1,2 dimethyl)disilyl heparin [silyl-heparin]
- CELL ATTACHMENT [1]: did not attach
- CELL ATTACHMENT (Jurkat (human T cell)): did not attach
- CELL ATTACHMENT (rat lymphocytes): did not attach
- growth (cell number) of endothelial cells [2]: did not result in an increase in cell number
